Test results reported in paper PMC9411704, “Assessment of the Carcinogenic Potential of Pretomanid in Transgenic Tg.rasH2 Mice” (International Journal of Toxicology, 2022).
Like-named read-outs stand apart in the source and are kept apart here. Marks after values point to notes of the source that are not given here.

Legend:
Mice = test system: Mice; set-up: method as in Drug Prescribing information; details: ref Drug Prescribing information; cited from earlier work
[1] = set-up: method as in Drug Prescribing information; details: ref Drug Prescribing information; cited from earlier work
Rats = test system: Rats; set-up: method as in Drug Prescribing information; details: ref Drug Prescribing information; cited from earlier work
Tg.rasH2 mice = details: for Incidence of lung adenoma, single / Incidence of lung carcinoma / Incidence of lung adenoma, multiple / Incidence of lung tumors, combined: three IP injections of 1000 mg/kg/day urethane; for Incidence of lung adenoma, multiple / Incidence of lung tumors, combined: P < 0.01; for Mean body weight / Mean food consumption: (SD)
Experimental: The vehicle was 0.5% carboxymethylcellulose (CMC) with 0.1% Tween 80 (v/v). The vehicle and pretomanid formulations were administered to mice by oral gavage once daily at a dosing volume of 10 mL/kg. Individual dose volumes were calculated based on each animal’s most recently recorded body weight. The dose formulations were magnetically stirred at room temperature for at least 30 minutes prior to and during dosing. The positive control was urethane in 0.9% sodium chloride and was administered via intraperitoneal injection for a total of three times. The positive control formulation was allowed to stand at room temperature for at least 30 minutes and inverted several times prior to dose administration. Aliquots (0.5 to 1.0 mL) were collected from the top, bottom, and middle of the first (week 1), interim (week 13), and last (week 25) pretomanid dose formulations to assess the accuracy of the concentration and/or homogeneity.
Male and female Tg.rasH2 [CByB6F1-Tg(HRAS)2Jic (+/−hemizygous c-Ha-ras)] mice (n = 110/sex) approximately 5 weeks of age were assigned to the main cohort groups to assess carcinogenicity. Male and female wild type CByB6F1 mice [CByB6F1-Tg(HRAS)2Jic (−/−homozygous c-Ha-ras)] (n = 34/sex) approximately 6 weeks of age were assigned to the cohort of mice used to assess the toxicokinetics of pretomanid and its M50 metabolite. […] All mice were obtained from Taconic Biosciences (Germantown, NY). The supplier verified that the mice were murine pathogen-free and females were nulliparous and non-pregnant. At the time of dosing initiation (Day 1), the toxicokinetic mice were approximately 8 weeks of age. On Day 1 of the study, the body weights of the main cohort mice ranged from 19.2 to 25.9 grams (males) and from 15.9 to 20.4 grams (females), and the body weights of the TK cohort mice ranged from 23.4 to 30.2 grams (males) and from 17.6 to 23.5 grams (females).
This study assessed the carcinogenic potential of pretomanid following repeated oral gavage administration once daily for 26 weeks in hemizygous Tg.rasH2 [CByB6F1-Tg(HRAS)2Jic (+/− hemizygous c-Ha-ras)] mice. This study also evaluated the TK profile of pretomanid and metabolite M50 in wild-type CByB6F1 [CByB6F1-Tg(HRAS)2Jic (−/−homozygous c-Ha-ras)] mice. The study was conducted under GLP regulations.
For carcinogenicity assessment (main cohort), 25 mice/sex were included in the vehicle control and pretomanid-treated groups. At the time of dosing initiation (Day 1), the main cohort mice used for assessing carcinogenicity were approximately 7 weeks of age and weighed between 15.9 to 20.4 g (females) and 19.2 to 25.9 g (males). Male groups (Groups 2, 4, and 6) received pretomanid in vehicle at doses of 5, 15, and 40 mg/kg/day, respectively. Female groups (Groups 3, 5, and 7) received pretomanid in vehicle at doses of 10, 30, and 80 mg/kg/day. Positive control mice (n = 10/sex) were included in the main cohort and received three intraperitoneal injections of urethane in saline (1000 mg/kg/injection) on Days 1, 3, and 5. The test and control articles were administered at a dose volume of 10 mL/kg body weight.
Clinical signs, body weights, and food consumption were assessed for the main cohort animals to monitor animal health and any potential toxicity from pretomanid administration. In-life measurements were recorded in Provantis™ Version 9.4.6.3 (Instem, Philadelphia, PA).
All animals, including those in the TK cohort, were observed twice daily for morbidity and mortality. For animals in the main cohort, cage side observations were performed on the day of dosing within 2 hours after the last animal in each group was dosed (Days 1, 3, and 5 for positive control animals).

## CCN(CC)C(=O)/C(C#N)=C/c1cc(O)c(O)c([N+](=O)[O-])c1 [Entacapone]
Mice
  Carcinogenicity in mice: Not carcinogenic
[1]
  Genotoxicity: Positive in vitro, negative in vivo
Rats
  Carcinogenicity in rats: Carcinogenic

## CCOC(N)=O [Positive control, urethane]
Tg.rasH2 mice; female
  Incidence of lung adenoma, single: 0%
  Incidence of lung carcinoma: 0%
  Incidence of lung adenoma, multiple: 100%*
  Incidence of lung tumors, combined: 100%*
Tg.rasH2 mice; female, urethane 1000 mg/kg IP Days 1, 3, 5, study day 1
  Mean body weight: 17.89 (0.57) Grams
Tg.rasH2 mice; female, urethane 1000 mg/kg IP Days 1, 3, 5, study day 29
  Mean body weight: 19.81 (0.58) Grams
Tg.rasH2 mice; female, urethane 1000 mg/kg IP Days 1, 3, 5, study day 57
  Mean body weight: 22.11 (0.68) Grams
Tg.rasH2 mice; female, urethane 1000 mg/kg IP Days 1, 3, 5, study days 1-8
  Mean food consumption: 3.313 (1.048) Grams/Day
Tg.rasH2 mice; female, urethane 1000 mg/kg IP Days 1, 3, 5, study days 29-36
  Mean food consumption: 6.218 (1.222) Grams/Day
Tg.rasH2 mice; female, urethane 1000 mg/kg IP Days 1, 3, 5, study days 57-64
  Mean food consumption: 4.210 (0.524) Grams/Day
Tg.rasH2 mice; male
  Incidence of lung adenoma, single: 0%
  Incidence of lung carcinoma: 0%
  Incidence of lung adenoma, multiple: 100%*
  Incidence of lung tumors, combined: 100%*
Tg.rasH2 mice; male, urethane 1000 mg/kg IP Days 1, 3, 5, study day 1
  Mean body weight: 21.99 (0.71) Grams
Tg.rasH2 mice; male, urethane 1000 mg/kg IP Days 1, 3, 5, study day 29
  Mean body weight: 24.81 (1.41) Grams
Tg.rasH2 mice; male, urethane 1000 mg/kg IP Days 1, 3, 5, study day 57
  Mean body weight: 27.73 (1.74) Grams
Tg.rasH2 mice; male, urethane 1000 mg/kg IP Days 1, 3, 5, study days 1-8
  Mean food consumption: 2.894 (0.461) Grams/Day
Tg.rasH2 mice; male, urethane 1000 mg/kg IP Days 1, 3, 5, study days 29-36
  Mean food consumption: 4.044 (0.374) Grams/Day
Tg.rasH2 mice; male, urethane 1000 mg/kg IP Days 1, 3, 5, study days 57-64
  Mean food consumption: 3.956 (0.359) Grams/Day
Tg.rasH2 mice; urethane 1000 mg/kg IP Days 1, 3, 5
  Clinical signs: ataxia and decreased motor activity
Tg.rasH2 mice; urethane 1000 mg/kg IP, first week of the study
  Body weight change: weight loss
Tg.rasH2 mice; urethane, each sex, P < 0.01 vs vehicle control
  Incidence of alveolar bronchiolar adenomas: 100%

## Cc1ncc([N+](=O)[O-])n1CCO [Metronidazole]
[1]
  Genotoxicity: Positive in vitro, negative in vivo

## O=C1CN(/N=C/c2ccc([N+](=O)[O-])o2)C(=O)N1 [Nitrofurantion]
Mice
  Carcinogenicity in mice: Not carcinogenic in Swiss or BDF mice, carcinogenic in female B6C3F1 mice
[1]
  Genotoxicity: Positive in vitro, negative in vivo
Rats
  Carcinogenicity in rats: Not carcinogenic in Holtzman rats or Sprague-Dawley rats, carcinogenic in male F344/N rats

## O=C(Cn1ccnc1[N+](=O)[O-])NCc1ccccc1 [Benznidazole]
[1]
  Genotoxicity: Positive in vitro and in vivo
